Results taken from patent US20240217967A1, “INDOLINE DERIVATIVES AS DDRS INHIBITORS” (CHIESI FARMACEUTICI S.P.A., priority 2021, published 2024).
pIC50, pKi: −log10 of the molar value. Values joined by “and” are separate entries in the source; they are usually repeats but may differ in a detail not shown here. Equal values may be shown once. Read-outs that look alike come from different tables or passages of the source.

What was measured:
DDR1 [1] = target: T1, DDR1 (Homo sapiens, UniProt Q08345); test: DDR1 cell based assay (PathHunter U2OS DDR1, collagen II stimulation); details: U2OS-DDR1 cells, bovine Type II Collagen stimulation
Method: The inhibition of DDR1 receptor activation by compounds was evaluated by PathHunter® U2OS DDR1 assay (Eurofins DiscoverX), according to the manufacturer's instructions. Briefly, U2OS-DDR1 cells were seeded in white 384-well plates at a density of 5000 cells/well and incubated for 2 hours at 37° C. and 5% CO2. Cells were then treated with compounds at different concentrations and incubated for 30 minutes, before stimulation with bovine Type II Collagen 20 μg/ml and incubation overnight at 37° C. and 5% CO2. PathHunter Detection Reagents were prepared according to the protocol provided by DiscoverX and 20 μl/well of this mix were added to each well. After incubating the plates for 1 hour at room temperature in the dark, luminescence signal was acquired with a plate reader. Raw data were normalized to vehicle control (0% for normalization) and positive control (100% for normalization; cells treated with 20 μg/ml collagen II) and IC50 parameters were calculated in GraphPad Prism 8.0 software, using sigmoidal dose-response curve fitting with variable slope.

DDR2 = target: T2, DDR2 (Homo sapiens, UniProt Q16832); test: DDR2 LanthaScreen Europium Kinase Binding assay
T2 sequence (Q16832 22-855): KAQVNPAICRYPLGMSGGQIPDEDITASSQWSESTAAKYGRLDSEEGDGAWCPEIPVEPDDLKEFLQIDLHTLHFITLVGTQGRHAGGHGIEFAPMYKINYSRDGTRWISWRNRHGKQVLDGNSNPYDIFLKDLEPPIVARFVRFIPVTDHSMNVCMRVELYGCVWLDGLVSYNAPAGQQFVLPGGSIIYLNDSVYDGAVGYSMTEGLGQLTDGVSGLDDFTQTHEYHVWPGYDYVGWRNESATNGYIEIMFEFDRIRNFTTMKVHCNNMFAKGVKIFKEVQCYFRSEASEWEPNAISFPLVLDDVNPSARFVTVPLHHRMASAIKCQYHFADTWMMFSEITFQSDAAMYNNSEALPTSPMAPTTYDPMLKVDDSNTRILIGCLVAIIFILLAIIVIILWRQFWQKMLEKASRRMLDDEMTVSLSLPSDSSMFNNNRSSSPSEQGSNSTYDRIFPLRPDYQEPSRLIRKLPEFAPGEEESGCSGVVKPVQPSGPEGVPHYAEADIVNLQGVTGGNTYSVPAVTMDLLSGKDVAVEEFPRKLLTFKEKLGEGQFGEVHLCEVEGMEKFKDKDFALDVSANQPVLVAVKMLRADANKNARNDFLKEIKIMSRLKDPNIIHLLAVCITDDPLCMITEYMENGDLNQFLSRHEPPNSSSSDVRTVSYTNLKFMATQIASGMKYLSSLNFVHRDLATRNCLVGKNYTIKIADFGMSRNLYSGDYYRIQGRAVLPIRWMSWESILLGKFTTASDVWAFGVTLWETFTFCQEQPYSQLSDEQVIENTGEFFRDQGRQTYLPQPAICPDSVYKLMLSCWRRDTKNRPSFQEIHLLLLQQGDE
Method: (§1) DDR1 and DDR2 binding assays were performed using Life Technologies LanthaScreen™ Europium Kinase Binding assay. The compounds were incubated with 5 nM DDR1 (Carna Biosciences) or 5 nM DDR2 (Life Technologies) for 1 hour at room temperature in white 384-well OptiPlate (PerkinElmer), containing 20 nM or 10 nM Kinase Tracer 178 respectively and 2 nM Europium labelled anti-GST antibody (Life Technologies) in assay buffer (50 mM HEPES pH 7.5, 10 mM MgCI2, 1 mM EGTA and 0.01% BRIJ35). The ratio of fluorescence emission 665 nm/615 nm after excitation at 340 nm was obtained using the Tecan Spark 20M plate reader. IC50 values were determined in GraphPad Prism 7.0 software, using 4 parameter model: log(inhibitor) vs. response. IC50 values were converted in Ki using the Cheng-Prusoff equation (Ki=IC50/(1+[Tracer]/Kd).

DDR1 [2] = target: T1, DDR1; test: DDR1 LanthaScreen Europium Kinase Binding assay
Method: as §1

[3] = binding affinity, IC50 converted in Ki using Cheng-Prusoff, read-out: Ki DDR2
[4] = binding affinity, IC50 converted in Ki using Cheng-Prusoff, read-out: Ki DDR1
[5] = binding assay, Ki from IC50 by Cheng-Prusoff, read-out: DDR2 Ki
[6] = binding assay, Ki from IC50 by Cheng-Prusoff, read-out: DDR1 Ki

T1 sequence (Q08345 19-913): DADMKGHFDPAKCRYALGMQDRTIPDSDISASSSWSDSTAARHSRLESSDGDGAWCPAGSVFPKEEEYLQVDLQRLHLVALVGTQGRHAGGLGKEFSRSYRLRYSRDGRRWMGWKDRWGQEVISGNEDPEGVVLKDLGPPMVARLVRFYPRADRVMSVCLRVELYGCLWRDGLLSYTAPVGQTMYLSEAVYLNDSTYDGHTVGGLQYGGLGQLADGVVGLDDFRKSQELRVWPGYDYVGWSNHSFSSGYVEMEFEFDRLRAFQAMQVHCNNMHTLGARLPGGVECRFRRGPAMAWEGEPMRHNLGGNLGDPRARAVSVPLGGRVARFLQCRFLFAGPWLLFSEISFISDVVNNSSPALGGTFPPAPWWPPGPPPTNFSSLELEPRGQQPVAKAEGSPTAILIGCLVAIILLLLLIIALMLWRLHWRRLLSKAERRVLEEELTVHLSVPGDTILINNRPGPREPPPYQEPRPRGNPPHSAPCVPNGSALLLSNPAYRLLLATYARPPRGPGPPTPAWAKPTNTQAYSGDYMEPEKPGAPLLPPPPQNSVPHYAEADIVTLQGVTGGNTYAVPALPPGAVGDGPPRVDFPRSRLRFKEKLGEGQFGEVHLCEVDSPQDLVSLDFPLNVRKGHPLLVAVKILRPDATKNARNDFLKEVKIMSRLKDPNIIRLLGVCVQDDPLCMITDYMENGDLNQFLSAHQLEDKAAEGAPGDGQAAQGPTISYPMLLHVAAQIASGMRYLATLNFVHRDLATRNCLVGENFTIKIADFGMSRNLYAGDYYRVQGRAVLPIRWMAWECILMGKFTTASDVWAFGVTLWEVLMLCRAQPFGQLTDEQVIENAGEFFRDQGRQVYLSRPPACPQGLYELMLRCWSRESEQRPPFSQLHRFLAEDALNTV

pIC50 (DDR1 [1])	pKi (DDR2; [3])	pKi (DDR1 [2]; [4])	pKi (DDR2; [5])	pKi (DDR1 [2]; [6])	Compound
7.30 to 7.60	> 7.60	> 7.60			Cc1cn(-c2cc(NC(=O)c3ccc4c(c3)N(Cc3cnc5cnccn35)CC4C)cc(C(F)(F)F)c2)cn1 (racemic) [Example 26, 1-(imidazo[1,2-a]pyrazin-3-ylmethyl)-3-methyl-N-(3-(4-methyl-1H-imidazol-1-yl)-5-(trifluoromethyl)phenyl)indoline-6-carboxamide]
> 7.60	> 7.60	> 7.60			CC1CN(Cc2cnc3[nH]ncc3c2)c2cc(C(=O)Nc3cccc(C(F)(F)F)c3)ccc21 (racemic) [Example 30, 1-((1H-pyrazolo[3,4-b]pyridin-5-yl)methyl)-3-methyl-N-(3-(trifluoromethyl)phenyl)indoline-6-carboxamide]
7.30 to 7.60	> 7.60	> 7.60			CCC1CN(Cc2cnc3cnccn23)c2cc(C(=O)Nc3cc(-n4cnc(C)c4)cc(C(F)(F)F)c3)ccc21 (single isomer, unassigned) [Example 64, 3-ethyl-1-(imidazo[1,2-a]pyrazin-3-ylmethyl)-N-(3-(4-methyl-1H-imidazol-1-yl)-5-(trifluoromethyl)phenyl)indoline-6-carboxamide]
7.30 to 7.60	> 7.60	> 7.60			Cc1cn(-c2cc(C(=O)Nc3ccc4c(c3)N(C(=O)c3cnc5cnccn35)CC4)cc(C(F)(F)F)c2)cn1 [Example 20, N-(1-(imidazo[1,2-a]pyrazine-3-carbonyl)indolin-6-yl)-3-(4-methyl-1H-imidazol-1-yl)-5-(trifluoromethyl)benzamide]
			4.24	< 6.22 and 4.24	CN1CCN(Cc2cc(NC(=O)c3ccc4c(c3)N(C(=O)Cc3cnc5ccccn35)CC4)cc(C(F)(F)F)c2)CC1 [Example C1, 1-(2-(imidazo[1,2-a]pyridin-3-yl)acetyl)-N-(3-((4-methylpiperazin-1-yl)methyl)-5-(trifluoromethyl)phenyl)indoline-6-carboxamide]
			4.24	6.22	CN1CCN(Cc2cc(C(=O)Nc3ccc4c(c3)N(C(=O)Cc3cnc5ccccn35)CC4)cc(C(F)(F)F)c2)CC1 [Example C2, N-(1-(2-(imidazo[1,2-a]pyridin-3-yl)acetyl)indolin-6-yl)-3-((4-methylpiperazin-1-yl)methyl)-5-(trifluoromethyl)benzamide]

Further lines, the compound ahead of its results:

Compound	pIC50 (DDR1 [1])	pKi (DDR2; [3])	pKi (DDR1 [2]; [4])	pKi (DDR2; [5])	pKi (DDR1 [2]; [6])
Cc1cn(-c2cc(NC(=O)c3ccc4c(c3)N(Cc3ccc5[nH]cnc5c3)CC4)cc(C(F)(F)F)c2)cn1 [Example 4, 1-((1H-benzo[d]imidazol-5-yl)methyl)-N-(3-(4-methyl-1H-imidazol-1-yl)-5-(trifluoromethyl)phenyl)indoline-6-carboxamide]	7.30 to 7.60	> 7.60	> 7.60		
Cc1cn(-c2cc(NC(=O)c3ccc4c(c3)N(Cc3ccc5ccncc5c3)CC4)cc(C(F)(F)F)c2)cn1 [Example 5, 1-(isoquinolin-7-ylmethyl)-N-(3-(4-methyl-1H-imidazol-1-yl)-5-(trifluoromethyl)phenyl)indoline-6-carboxamide]	7.30 to 7.60	7.10 to 7.30	7.30 to 7.60		
Cc1cn(-c2cc(NC(=O)c3ccc4c(c3)N(Cc3ccc5[nH]ncc5c3)CC4)cc(C(F)(F)F)c2)cn1 [Example 8, 1-((1H-indazol-5-yl)methyl)-N-(3-(4-methyl-1H-imidazol-1-yl)-5-(trifluoromethyl)phenyl)indoline-6-carboxamide]	7.10 to 7.30	7.30 to 7.60	7.30 to 7.60		
CN1CCN(Cc2cc(NC(=O)c3ccc4c(c3)N(Cc3cnc5cnccn35)CC4)cc(C(F)(F)F)c2)CC1 [Example 10, 1-(imidazo[1,2-a]pyrazin-3-ylmethyl)-N-(3-((4-methylpiperazin-1-yl)methyl)-5-(trifluoromethyl)phenyl)indoline-6-carboxamide]	7.30 to 7.60	> 7.60	> 7.60		
CN1CCN(Cc2cc(NC(=O)c3ccc4c(c3)N(Cc3cnc5ccccn35)CC4)cc(C(F)(F)F)c2)CC1 [Example 11, 1-(imidazo[1,2-a]pyridin-3-ylmethyl)-N-(3-((4-methylpiperazin-1-yl)methyl)-5-(trifluoromethyl)phenyl)indoline-6-carboxamide]	7.10 to 7.30	> 7.60	> 7.60		
Cc1cn(-c2cc(NC(=O)c3ccc4c(c3)N(C(=O)c3cnc5ccccn35)CC4)cc(C(F)(F)F)c2)cn1 [Example 12, 1-(imidazo[1,2-a]pyridine-3-carbonyl)-N-(3-(4-methyl-1H-imidazol-1-yl)-5-(trifluoromethyl)phenyl)indoline-6-carboxamide]	7.10 to 7.30	> 7.60	> 7.60		
Cc1cn(-c2cc(NC(=O)c3ccc4c(c3)N(C(=O)c3cnc5cnccn35)CC4)cc(C(F)(F)F)c2)cn1 [Example 13, 1-(imidazo[1,2-a]pyrazine-3-carbony1)-N-(3-(4-methyl-1H-imidazol-1-y1)-5-(trifluoromethyl)phenyl)indoline-6-carboxamide]	7.10 to 7.30	> 7.60	> 7.60		
CN1CCN(Cc2cc(NC(=O)c3ccc4c(c3)N(C(=O)c3cnc5ccccn35)CC4)cc(C(F)(F)F)c2)CC1 [Example 14, 1-(imidazo[1,2-a]pyridine-3-carbonyl)-N-(3-((4-methylpiperazin-1-yl)methyl)-5-(trifluoromethyl)phenyl)indoline-6-carboxamide]	7.30 to 7.60	> 7.60	> 7.60		
CN1CCN(Cc2cc(NC(=O)c3ccc4c(c3)N(C(=O)c3cnc5cnccn35)CC4)cc(C(F)(F)F)c2)CC1 [Example 15, 1-(imidazo[1,2-a]pyrazine-3-carbonyl)-N-(3-((4-methylpiperazin-1-yl)methyl)-5-(trifluoromethyl)phenyl)indoline-6-carboxamide]	7.10 to 7.30	> 7.60	> 7.60		
CN1CCN(Cc2cc(C(=O)Nc3ccc4c(c3)N(C(=O)c3cnc5ccccn35)CC4)cc(C(F)(F)F)c2)CC1 [Example 16, N-(1-(imidazo[1,2-a]pyridine-3-carbonyl)indolin-6-yl)-3-((4-methylpiperazin-1-yl)methyl)-5-(trifluoromethyl)benzamide]	7.30 to 7.60	> 7.60	> 7.60		
CN1CCN(Cc2cc(C(=O)Nc3ccc4c(c3)N(Cc3ccc5ncsc5c3)CC4)cc(C(F)(F)F)c2)CC1 [Example 17, N-(1-(benzo[d]thiazol-6-ylmethyl)indolin-6-yl)-3-((4-methylpiperazin-1-yl)methyl)-5-(trifluoromethyl)benzamide]	7.30 to 7.60	> 7.60	> 7.60		
CN1CCN(Cc2cc(C(=O)Nc3ccc4c(c3)N(Cc3cnc5cnccn35)CC4)cc(C(F)(F)F)c2)CC1 [Example 18, N-(1-(imidazo[1,2-a]pyrazin-3-ylmethyl)indolin-6-yl)-3-((4-methylpiperazin-1-yl)methyl)-5-(trifluoromethyl)benzamide]	7.30 to 7.60	> 7.60	> 7.60		
Cc1cn(-c2cc(C(=O)Nc3ccc4c(c3)N(C(=O)c3cnc5ccccn35)CC4)cc(C(F)(F)F)c2)cn1 [Example 19, N-(1-(imidazo[1,2-a]pyridine-3-carbonyl)indolin-6-yl)-3-(4-methyl-1H-imidazol-1-yl)-5-(trifluoromethyl)benzamide]	7.30 to 7.60	> 7.60	> 7.60		
